From patent US10670605B2, “Cysteine reactive probes and uses thereof” (The Scripps Research Institute, priority 2015, dated 2020)
One block for each compound: values may come before it.

Tests used:
Assay in all cases: Competitive isoTOP-ABPP, cell lysates
Assay type in all cases: binding
CASP8 C360 (Q14790) = CASP8 C360 (Q14790) (Homo sapiens, UniProt Q14790)
KDM4B C694 (O94953) = target: T1, KDM4B C694 (O94953) (Homo sapiens, UniProt O94953)
T1 sequence (O94953 1-1096): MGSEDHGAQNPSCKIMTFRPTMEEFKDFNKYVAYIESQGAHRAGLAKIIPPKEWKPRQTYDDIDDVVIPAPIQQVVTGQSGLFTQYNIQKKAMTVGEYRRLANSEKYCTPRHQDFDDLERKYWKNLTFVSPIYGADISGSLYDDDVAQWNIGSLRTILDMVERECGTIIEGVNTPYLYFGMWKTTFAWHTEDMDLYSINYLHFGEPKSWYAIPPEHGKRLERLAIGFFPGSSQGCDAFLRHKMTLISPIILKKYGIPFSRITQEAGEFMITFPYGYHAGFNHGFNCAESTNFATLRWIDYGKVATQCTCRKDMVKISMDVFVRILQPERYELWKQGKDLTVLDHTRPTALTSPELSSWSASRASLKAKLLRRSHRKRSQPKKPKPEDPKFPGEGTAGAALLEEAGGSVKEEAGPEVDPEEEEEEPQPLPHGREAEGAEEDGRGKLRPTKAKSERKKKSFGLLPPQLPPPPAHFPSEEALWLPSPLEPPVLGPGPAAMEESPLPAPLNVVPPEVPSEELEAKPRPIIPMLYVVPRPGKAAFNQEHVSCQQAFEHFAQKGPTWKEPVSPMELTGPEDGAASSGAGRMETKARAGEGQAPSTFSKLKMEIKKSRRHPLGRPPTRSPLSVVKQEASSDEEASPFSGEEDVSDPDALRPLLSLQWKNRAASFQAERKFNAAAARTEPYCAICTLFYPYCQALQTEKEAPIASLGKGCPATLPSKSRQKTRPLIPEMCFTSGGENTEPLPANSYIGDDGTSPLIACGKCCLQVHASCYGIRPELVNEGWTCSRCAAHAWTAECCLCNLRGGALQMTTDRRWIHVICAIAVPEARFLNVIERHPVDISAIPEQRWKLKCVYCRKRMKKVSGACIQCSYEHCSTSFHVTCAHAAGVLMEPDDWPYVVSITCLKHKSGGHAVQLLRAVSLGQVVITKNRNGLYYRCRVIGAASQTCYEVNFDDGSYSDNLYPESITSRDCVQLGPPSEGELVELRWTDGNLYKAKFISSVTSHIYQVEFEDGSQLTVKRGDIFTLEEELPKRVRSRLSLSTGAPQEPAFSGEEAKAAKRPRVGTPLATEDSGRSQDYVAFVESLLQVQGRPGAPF

USP16 C205 (Q9Y5T5) = USP16 C205 (Q9Y5T5) (Homo sapiens, UniProt Q9Y5T5)
Sequence of USP16 C205 (Q9Y5T5) (Q9Y5T5 whole entry): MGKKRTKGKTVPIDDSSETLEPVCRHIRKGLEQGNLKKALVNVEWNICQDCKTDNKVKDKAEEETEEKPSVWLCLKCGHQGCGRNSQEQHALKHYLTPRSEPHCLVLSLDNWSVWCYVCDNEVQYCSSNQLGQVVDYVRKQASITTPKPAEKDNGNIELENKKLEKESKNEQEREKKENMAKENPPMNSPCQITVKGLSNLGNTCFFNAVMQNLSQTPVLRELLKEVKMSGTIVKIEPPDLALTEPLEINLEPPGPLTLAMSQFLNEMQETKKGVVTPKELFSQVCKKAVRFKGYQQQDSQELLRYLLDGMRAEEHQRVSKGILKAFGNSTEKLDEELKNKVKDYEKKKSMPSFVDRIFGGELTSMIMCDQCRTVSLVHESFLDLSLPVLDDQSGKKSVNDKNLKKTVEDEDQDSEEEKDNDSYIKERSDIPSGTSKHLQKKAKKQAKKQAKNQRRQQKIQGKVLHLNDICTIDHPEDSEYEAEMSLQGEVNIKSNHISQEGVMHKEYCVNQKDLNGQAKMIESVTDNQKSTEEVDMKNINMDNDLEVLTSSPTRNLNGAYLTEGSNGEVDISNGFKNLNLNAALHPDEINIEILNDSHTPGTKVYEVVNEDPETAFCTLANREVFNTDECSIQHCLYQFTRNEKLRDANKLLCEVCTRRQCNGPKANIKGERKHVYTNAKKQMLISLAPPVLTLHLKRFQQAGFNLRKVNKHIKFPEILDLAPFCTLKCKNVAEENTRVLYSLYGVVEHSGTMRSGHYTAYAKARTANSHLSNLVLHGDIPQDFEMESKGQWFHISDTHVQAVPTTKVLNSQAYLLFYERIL

LRBA C1704 (P50851) = LRBA C1704 (P50851) (Homo sapiens, UniProt P50851)
Sequence of LRBA C1704 (P50851) (P50851 whole entry): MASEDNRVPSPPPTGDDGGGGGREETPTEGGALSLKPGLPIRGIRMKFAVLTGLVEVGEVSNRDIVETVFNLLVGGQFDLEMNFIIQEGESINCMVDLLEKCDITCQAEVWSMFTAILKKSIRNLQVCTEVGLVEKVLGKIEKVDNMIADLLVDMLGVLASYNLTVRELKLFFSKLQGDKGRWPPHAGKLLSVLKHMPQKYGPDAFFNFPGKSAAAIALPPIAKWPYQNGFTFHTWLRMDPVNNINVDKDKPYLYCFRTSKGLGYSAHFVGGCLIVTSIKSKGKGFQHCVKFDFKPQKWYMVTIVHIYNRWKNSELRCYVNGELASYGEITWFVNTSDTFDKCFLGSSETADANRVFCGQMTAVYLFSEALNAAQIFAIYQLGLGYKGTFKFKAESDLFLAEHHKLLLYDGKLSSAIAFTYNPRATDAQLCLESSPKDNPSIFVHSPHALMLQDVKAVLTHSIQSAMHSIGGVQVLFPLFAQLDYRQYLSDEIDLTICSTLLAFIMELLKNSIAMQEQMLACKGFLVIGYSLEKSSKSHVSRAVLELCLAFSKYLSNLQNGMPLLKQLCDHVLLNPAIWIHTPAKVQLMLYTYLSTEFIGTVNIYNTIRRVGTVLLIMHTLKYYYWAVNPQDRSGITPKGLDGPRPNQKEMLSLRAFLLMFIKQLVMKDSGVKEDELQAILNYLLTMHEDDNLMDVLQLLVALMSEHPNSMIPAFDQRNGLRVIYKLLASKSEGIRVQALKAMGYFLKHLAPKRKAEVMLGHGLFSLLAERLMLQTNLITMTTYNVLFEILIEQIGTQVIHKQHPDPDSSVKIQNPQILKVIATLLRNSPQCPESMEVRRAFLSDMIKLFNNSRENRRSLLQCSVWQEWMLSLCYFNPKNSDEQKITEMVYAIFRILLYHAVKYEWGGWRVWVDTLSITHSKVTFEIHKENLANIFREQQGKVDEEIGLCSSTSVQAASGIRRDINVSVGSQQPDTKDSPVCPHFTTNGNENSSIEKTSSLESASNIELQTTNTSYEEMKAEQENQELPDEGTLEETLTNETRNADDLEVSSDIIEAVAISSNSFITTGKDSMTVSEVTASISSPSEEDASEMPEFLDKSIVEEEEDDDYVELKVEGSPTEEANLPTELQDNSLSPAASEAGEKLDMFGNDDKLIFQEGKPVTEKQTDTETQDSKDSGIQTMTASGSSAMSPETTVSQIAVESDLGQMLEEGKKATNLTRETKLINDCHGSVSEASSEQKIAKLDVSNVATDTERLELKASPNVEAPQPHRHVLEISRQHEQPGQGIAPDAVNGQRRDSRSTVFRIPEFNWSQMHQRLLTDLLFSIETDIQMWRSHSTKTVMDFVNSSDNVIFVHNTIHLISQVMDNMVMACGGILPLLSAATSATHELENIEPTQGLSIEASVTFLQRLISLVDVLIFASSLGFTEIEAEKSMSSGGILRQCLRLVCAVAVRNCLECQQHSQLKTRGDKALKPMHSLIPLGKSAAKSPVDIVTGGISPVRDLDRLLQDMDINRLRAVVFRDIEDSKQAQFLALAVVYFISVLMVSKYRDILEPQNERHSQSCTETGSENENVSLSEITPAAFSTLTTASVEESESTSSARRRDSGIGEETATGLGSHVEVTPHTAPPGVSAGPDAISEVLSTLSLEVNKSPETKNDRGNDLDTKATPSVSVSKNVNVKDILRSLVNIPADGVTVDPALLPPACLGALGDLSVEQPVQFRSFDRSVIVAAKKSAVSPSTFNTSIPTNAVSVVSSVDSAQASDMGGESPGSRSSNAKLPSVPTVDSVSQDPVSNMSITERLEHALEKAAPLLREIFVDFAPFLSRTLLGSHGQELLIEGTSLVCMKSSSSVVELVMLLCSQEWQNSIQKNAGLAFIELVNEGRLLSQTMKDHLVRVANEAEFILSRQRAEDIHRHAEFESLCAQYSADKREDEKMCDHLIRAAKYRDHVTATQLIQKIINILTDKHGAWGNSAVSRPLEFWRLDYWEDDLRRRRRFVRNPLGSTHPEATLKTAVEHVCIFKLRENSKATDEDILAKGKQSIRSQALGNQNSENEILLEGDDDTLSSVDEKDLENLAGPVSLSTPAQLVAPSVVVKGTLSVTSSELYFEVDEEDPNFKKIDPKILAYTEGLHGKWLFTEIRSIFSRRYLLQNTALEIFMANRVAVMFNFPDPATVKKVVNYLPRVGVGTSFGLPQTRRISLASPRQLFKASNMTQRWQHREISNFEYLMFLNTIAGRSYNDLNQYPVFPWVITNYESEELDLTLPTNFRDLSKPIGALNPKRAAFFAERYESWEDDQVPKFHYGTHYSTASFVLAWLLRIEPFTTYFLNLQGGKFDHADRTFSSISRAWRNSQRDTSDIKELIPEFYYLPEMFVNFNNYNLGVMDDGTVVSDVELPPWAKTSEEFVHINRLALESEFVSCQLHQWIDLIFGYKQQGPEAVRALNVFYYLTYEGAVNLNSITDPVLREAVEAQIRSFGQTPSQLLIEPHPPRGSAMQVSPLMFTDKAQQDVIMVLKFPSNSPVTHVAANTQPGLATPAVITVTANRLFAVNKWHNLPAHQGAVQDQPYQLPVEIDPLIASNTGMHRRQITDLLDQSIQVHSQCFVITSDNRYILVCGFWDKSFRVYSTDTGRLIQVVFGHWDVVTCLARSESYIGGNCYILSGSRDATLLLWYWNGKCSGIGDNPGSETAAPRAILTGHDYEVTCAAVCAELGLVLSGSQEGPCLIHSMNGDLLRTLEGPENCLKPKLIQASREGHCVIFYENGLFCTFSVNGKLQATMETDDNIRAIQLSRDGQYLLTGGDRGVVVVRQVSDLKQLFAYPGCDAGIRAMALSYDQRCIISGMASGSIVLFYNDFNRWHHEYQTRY

MGMT C145 (P16455) = target: T2, MGMT C145 (P16455) (Homo sapiens, UniProt P16455)
T2 sequence (P16455 1-207): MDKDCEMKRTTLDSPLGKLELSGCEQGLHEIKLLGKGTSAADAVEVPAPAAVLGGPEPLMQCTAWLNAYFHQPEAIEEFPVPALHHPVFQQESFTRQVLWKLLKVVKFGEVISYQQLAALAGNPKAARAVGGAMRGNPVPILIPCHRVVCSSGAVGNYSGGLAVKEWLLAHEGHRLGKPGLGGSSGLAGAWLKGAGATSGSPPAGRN

CDK5 C157 (Q00535) = CDK5 C157 (Q00535) (Homo sapiens, UniProt Q00535)
Sequence of CDK5 C157 (Q00535) (Q00535 whole entry): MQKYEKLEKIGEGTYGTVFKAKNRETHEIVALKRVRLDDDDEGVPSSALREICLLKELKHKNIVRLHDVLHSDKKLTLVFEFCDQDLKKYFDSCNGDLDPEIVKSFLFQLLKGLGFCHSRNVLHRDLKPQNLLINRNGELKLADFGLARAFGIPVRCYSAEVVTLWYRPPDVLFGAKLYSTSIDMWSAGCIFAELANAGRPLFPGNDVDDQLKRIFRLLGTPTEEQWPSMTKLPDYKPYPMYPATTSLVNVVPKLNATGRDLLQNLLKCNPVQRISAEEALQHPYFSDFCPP

PFKFB4 C159 (Q16877) = PFKFB4 C159 (Q16877) (Homo sapiens, UniProt Q16877)
Sequence of PFKFB4 C159 (Q16877) (Q16877 whole entry): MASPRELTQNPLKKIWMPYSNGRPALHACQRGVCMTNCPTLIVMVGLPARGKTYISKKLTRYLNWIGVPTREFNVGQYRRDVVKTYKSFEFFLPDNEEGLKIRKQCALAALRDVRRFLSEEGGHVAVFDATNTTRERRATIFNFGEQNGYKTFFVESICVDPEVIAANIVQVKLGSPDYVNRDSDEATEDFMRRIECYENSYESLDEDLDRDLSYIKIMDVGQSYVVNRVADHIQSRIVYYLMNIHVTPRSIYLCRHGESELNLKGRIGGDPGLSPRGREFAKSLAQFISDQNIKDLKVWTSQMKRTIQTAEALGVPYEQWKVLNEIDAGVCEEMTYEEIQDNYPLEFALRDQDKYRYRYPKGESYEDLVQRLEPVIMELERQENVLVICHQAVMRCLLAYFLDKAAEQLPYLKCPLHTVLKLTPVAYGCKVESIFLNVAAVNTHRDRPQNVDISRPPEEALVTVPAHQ

Sequence of CASP8 C360 (Q14790) (Q14790 whole entry): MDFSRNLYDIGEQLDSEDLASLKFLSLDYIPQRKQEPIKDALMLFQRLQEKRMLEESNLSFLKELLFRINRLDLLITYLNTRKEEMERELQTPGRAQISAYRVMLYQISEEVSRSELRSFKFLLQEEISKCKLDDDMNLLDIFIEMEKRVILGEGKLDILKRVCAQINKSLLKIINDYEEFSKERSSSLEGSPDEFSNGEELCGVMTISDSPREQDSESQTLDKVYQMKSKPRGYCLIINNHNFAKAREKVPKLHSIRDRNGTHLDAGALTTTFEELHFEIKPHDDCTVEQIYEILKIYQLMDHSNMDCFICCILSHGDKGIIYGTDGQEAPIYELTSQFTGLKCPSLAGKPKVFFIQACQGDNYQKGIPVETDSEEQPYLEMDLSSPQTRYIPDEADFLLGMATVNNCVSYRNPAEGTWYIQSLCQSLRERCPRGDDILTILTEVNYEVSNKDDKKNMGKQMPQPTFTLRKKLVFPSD

R value (DMSO/fragment) (CASP8 C360 (Q14790); 500 μM, in vitro, MDA-MB-231): 3.3 | R value (DMSO/fragment) (CASP8 C360 (Q14790); 500 μM, invitro, ramos): 2.3 | R value (DMSO/fragment) (KDM4B C694 (O94953); 500 μM, in vitro, MDA-MB-231): 20.0 | R value (DMSO/fragment) (KDM4B C694 (O94953); 500 μM, invitro, ramos): 7.4 | R value (DMSO/fragment) (USP16 C205 (Q9Y5T5); 500 μM, invitro, ramos): 8.8 | R value (DMSO/fragment) (LRBA C1704 (P50851); 500 μM, invitro, ramos): 3.6 | R value (DMSO/fragment) (MGMT C145 (P16455); 500 μM, invitro, ramos): 20.0 | R value (DMSO/fragment) (CDK5 C157 (Q00535); 500 μM, invitro, ramos): 20.0 | R value (DMSO/fragment) (PFKFB4 C159 (Q16877); 500 μM, invitro, ramos): 12.9
Structure (SMILES): O=C(CCl)Nc1cc(C(F)(F)F)cc(C(F)(F)F)c1 [compound 3]

isoTOP-ABPP ratio Q14790_C360 (CASP8 C360 (Q14790); 500 μM, invitro, 231): 20.0 | isoTOP-ABPP ratio Q14790_C360 (CASP8 C360 (Q14790); 500 μM, invitro, ramos): 20.0 | isoTOP-ABPP ratio, O94953_C694 (KDM4B C694 (O94953); 500 μM, invitro, ramos): 1.9 | isoTOP-ABPP ratio, Q9Y5T5_C205 (USP16 C205 (Q9Y5T5); 500 μM, invitro, 231): 20.0 | isoTOP-ABPP ratio, P50851_C1704 (LRBA C1704 (P50851); 500 μM, invitro, ramos): 1.4 | isoTOP-ABPP ratio, P16455_C145 (MGMT C145 (P16455); 500 μM, invitro, ramos): 20.0 | isoTOP-ABPP ratio, Q00535_C157 (CDK5 C157 (Q00535); 500 μM, invitro, ramos): 1.3 | isoTOP-ABPP ratio, Q16877_C159 (PFKFB4 C159 (Q16877); 500 μM, invitro, ramos): 0.6
Structure (SMILES): Cn1cc(S(=O)(=O)N2CCOCC2)cc1C(=O)NC(=O)CCl [compound 11]

isoTOP-ABPP ratio (reactivity profile), Q14790_C360 (CASP8 C360 (Q14790); 500 μm in-vitro ramos): 1.4 | isoTOP-ABPP ratio (reactivity profile), Q14790_C360 (CASP8 C360 (Q14790); 500 μm in-vitro ramos_231): 1.4 | isoTOP-ABPP ratio (reactivity profile), O94953_C694 (KDM4B C694 (O94953); 500 μm in-vitro ramos): 3.2 | isoTOP-ABPP ratio (reactivity profile), Q9Y5T5_C205 (USP16 C205 (Q9Y5T5); 500 μm in-vitro ramos): 1.2 | isoTOP-ABPP ratio (reactivity profile), P50851_C1704 (LRBA C1704 (P50851); 500 μm in-vitro ramos): 3.4 | isoTOP-ABPP ratio (reactivity profile), P16455_C145 (MGMT C145 (P16455); 500 μm in-vitro ramos): 1.0 | isoTOP-ABPP ratio (reactivity profile), Q00535_C157 (CDK5 C157 (Q00535); 500 μm in-vitro ramos): 2.8 | isoTOP-ABPP ratio (reactivity profile), Q16877_C159 (PFKFB4 C159 (Q16877); 500 μm in-vitro ramos): 1.0
Structure (SMILES): N#C/C(=C\c1cc(C(F)(F)F)cc(C(F)(F)F)c1)C(N)=O [compound 23]

R value (DMSO/fragment) (CASP8 C360 (Q14790); 250 μM, in vitro, MDA-MB-231): 12.3 | R value (DMSO/fragment) (KDM4B C694 (O94953); 250 μM, in vitro, MDA-MB-231): 20.0 | R value (DMSO/fragment) (USP16 C205 (Q9Y5T5); 250 μM, in vitro, Ramos): 20.0 | R value (DMSO/fragment) (LRBA C1704 (P50851); 250 μM, in vitro, Ramos): 1.5 | R value (DMSO/fragment) (MGMT C145 (P16455); 250 μM, in vitro, Ramos): 20.0 | R value (DMSO/fragment) (CDK5 C157 (Q00535); 250 μM, in vitro, Ramos): 1.3 | R value (DMSO/fragment) (PFKFB4 C159 (Q16877); 250 μM, in vitro, MDA-MB-231): 1.4
Structure (SMILES): COc1ccc(C2CC(c3cccs3)=NN2C(=O)CCl)cc1 (centres unmarked) [compound 4]
